From ChEMBL document CHEMBL1201862, “PubChem BioAssay data set” (2004)
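Growth conditions: 96-well plates. Treatment: test compound, 48 hours, 5 concentrations. Analysis: linear interpolation between bracketing concentrations; unreached endpoints set to highest concentration. Here, GI50 denotes the concentration required for 50% inhibition of growth.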 Calls of active or inactive are those of the source. Rule as the data show it: active = GI50 up to about 1.1 µM and inactive = higher.

Tests used:
Test in all cases: DTP human tumour cell line panel, 48 h
[1] = test system: LOX IMVI
[2] = test system: SK-MEL-28
[3] = test system: ACHN
[4] = test system: MDA-MB-435
[5] = test system: K562
[6] = test system: HCT-116
[7] = test system: OVCAR-8
[8] = test system: NCI-H23
[9] = test system: T47D
[10] = test system: PC-3
[11] = test system: MDA-N
[12] = test system: CAKI-1
[13] = test system: SF-295
[14] = test system: RXF 393
[15] = test system: SK-MEL-5
[16] = test system: EKVX
[17] = test system: OVCAR-3
[18] = test system: A498
[19] = test system: HL-60
[20] = test system: HOP-62

Structure (SMILES)	GI50 [1]	GI50 [2]	GI50 [3]	GI50 [4]	GI50 [5]	GI50 [6]	GI50 [7]	GI50 [8]	GI50 [9]	GI50 [10]	GI50 [11]	GI50 [12]	GI50 [13]	GI50 [14]	GI50 [15]	GI50 [16]	GI50 [17]	GI50 [18]	GI50 [19]	GI50 [20]
CCOC(=O)C1C[C@H]2CO[C@H](c3ccccc3)N2C1=O (stereo partly specified)	> 100 µM (inactive)	> 100 µM (inactive)	> 100 µM (inactive)	> 100 µM (inactive)	> 100 µM (inactive)	> 100 µM (inactive)	> 100 µM (inactive)	> 100 µM (inactive)	> 100 µM (inactive)	> 100 µM (inactive)	> 100 µM (inactive)	> 100 µM (inactive)	> 100 µM (inactive)	> 100 µM (inactive)	> 100 µM (inactive)	> 100 µM (inactive)	> 100 µM (inactive)	–	–	–
COc1ccc2c(c1)C(N)=C(c1ccccc1)C2=O	> 100 µM (inactive)	> 100 µM (inactive)	33.9 µM (inactive)	> 100 µM (inactive)	–	58.3 µM (inactive)	34.4 µM (inactive)	38.8 µM (inactive)	32.5 µM (inactive)	> 100 µM (inactive)	> 100 µM (inactive)	> 100 µM (inactive)	97.1 µM (inactive)	–	49.1 µM (inactive)	> 100 µM (inactive)	> 100 µM (inactive)	> 100 µM (inactive)	> 100 µM (inactive)	> 100 µM (inactive)
CCCCCCCCCCCCCCCCNc1ccc2c(c1)OCCOCCOCCOCCO2	2.24 µM (inactive)	6.28 µM (inactive)	3.05 µM (inactive)	3.17 µM (inactive)	4.2 µM (inactive)	3.04 µM (inactive)	2.68 µM (inactive)	3.62 µM (inactive)	3.11 µM (inactive)	2.2 µM (inactive)	3.14 µM (inactive)	4 µM (inactive)	2.33 µM (inactive)	2.3 µM (inactive)	2.25 µM (inactive)	4.03 µM (inactive)	2.71 µM (inactive)	–	2.07 µM (inactive)	2.51 µM (inactive)
CC(C)N(C(C)C)S(=O)(=O)CC12CCC(C/C1=N\O)C2 (stereo unspecified)	> 100 µM (inactive)	> 100 µM (inactive)	> 100 µM (inactive)	> 100 µM (inactive)	> 100 µM (inactive)	> 100 µM (inactive)	> 100 µM (inactive)	> 100 µM (inactive)	> 100 µM (inactive)	> 100 µM (inactive)	> 100 µM (inactive)	> 100 µM (inactive)	> 100 µM (inactive)	> 100 µM (inactive)	> 100 µM (inactive)	> 100 µM (inactive)	> 100 µM (inactive)	–	> 100 µM (inactive)	> 100 µM (inactive)
O=C1c2cscc2C(=O)c2c(OCc3ccccc3)ccc(OCc3ccccc3)c21	97.9 µM (inactive)	> 100 µM (inactive)	> 100 µM (inactive)	> 100 µM (inactive)	61.1 µM (inactive)	91.6 µM (inactive)	> 100 µM (inactive)	> 100 µM (inactive)	> 100 µM (inactive)	78.5 µM (inactive)	> 100 µM (inactive)	> 100 µM (inactive)	> 100 µM (inactive)	75.7 µM (inactive)	> 100 µM (inactive)	> 100 µM (inactive)	> 100 µM (inactive)	–	96.4 µM (inactive)	> 100 µM (inactive)
CN1CCc2c(sc3nc(Nc4ccccc4)n(N)c(=O)c23)C1	–	–	> 100 µM (inactive)	–	37.1 µM (inactive)	72.3 µM (inactive)	> 100 µM (inactive)	> 100 µM (inactive)	> 100 µM (inactive)	> 100 µM (inactive)	> 100 µM (inactive)	> 100 µM (inactive)	63.1 µM (inactive)	63.4 µM (inactive)	77.3 µM (inactive)	> 100 µM (inactive)	> 100 µM (inactive)	> 100 µM (inactive)	19.8 µM (inactive)	> 100 µM (inactive)
O=C(O)CN(CC(=O)O)Cc1ccn(-c2cccc(-n3ccc(CN(CC(=O)O)CC(=O)O)n3)n2)n1	–	> 100 µM (inactive)	> 100 µM (inactive)	3.53 µM (inactive)	–	> 100 µM (inactive)	> 100 µM (inactive)	< 0.01 µM (active)	> 100 µM (inactive)	> 100 µM (inactive)	> 100 µM (inactive)	> 100 µM (inactive)	> 100 µM (inactive)	> 100 µM (inactive)	> 100 µM (inactive)	> 100 µM (inactive)	> 100 µM (inactive)	–	< 0.01 µM (active)	> 100 µM (inactive)
COc1cc2c[n+](C)c3c(c2cc1OC)Cc1cc2c(cc1-3)OCO2	> 100 µM (inactive)	> 100 µM (inactive)	–	> 100 µM (inactive)	> 100 µM (inactive)	> 100 µM (inactive)	> 100 µM (inactive)	> 100 µM (inactive)	> 100 µM (inactive)	> 100 µM (inactive)	> 100 µM (inactive)	> 100 µM (inactive)	> 100 µM (inactive)	–	> 100 µM (inactive)	> 100 µM (inactive)	> 100 µM (inactive)	> 100 µM (inactive)	> 100 µM (inactive)	> 100 µM (inactive)
O=c1ccn(C2OC(CO)C(P(=O)(O)O)C2O)c(=O)[nH]1 (stereo unspecified)	> 100 µM (inactive)	> 100 µM (inactive)	> 100 µM (inactive)	–	> 100 µM (inactive)	> 100 µM (inactive)	> 100 µM (inactive)	> 100 µM (inactive)	> 100 µM (inactive)	> 100 µM (inactive)	> 100 µM (inactive)	> 100 µM (inactive)	> 100 µM (inactive)	> 100 µM (inactive)	> 100 µM (inactive)	> 100 µM (inactive)	> 100 µM (inactive)	> 100 µM (inactive)	> 100 µM (inactive)	> 100 µM (inactive)
Nn1c(Cc2ccc(Cl)cc2)n[nH]c1=O	> 100 µM (inactive)	> 100 µM (inactive)	> 100 µM (inactive)	> 100 µM (inactive)	> 100 µM (inactive)	> 100 µM (inactive)	> 100 µM (inactive)	> 100 µM (inactive)	> 100 µM (inactive)	–	> 100 µM (inactive)	50.5 µM (inactive)	> 100 µM (inactive)	> 100 µM (inactive)	> 100 µM (inactive)	> 100 µM (inactive)	> 100 µM (inactive)	> 100 µM (inactive)	> 100 µM (inactive)	72.1 µM (inactive)
CCOC(=O)c1c(Br)c(-c2ccc([N+](=O)[O-])cc2)c(Br)n1C	> 10 µM (inactive)	> 10 µM (inactive)	> 10 µM (inactive)	> 10 µM (inactive)	> 10 µM (inactive)	> 10 µM (inactive)	> 10 µM (inactive)	> 10 µM (inactive)	> 10 µM (inactive)	> 10 µM (inactive)	> 10 µM (inactive)	> 10 µM (inactive)	> 10 µM (inactive)	–	> 10 µM (inactive)	9.55 µM (inactive)	> 10 µM (inactive)	> 10 µM (inactive)	> 10 µM (inactive)	> 10 µM (inactive)
